In patent US8362072B2, “BRCA1-based breast or ovarian cancer treatment agents and methods of use” (University of Kansas, priority 2007, dated 2013):

Legend:
human BRCA1 promoter = assay: BRCA1-luciferase reporter assay (Steady-Glo) in stably transfected MCF7 cells; format: cell-based; details: for EC50 / EC90: MCF7-BRCA1-luciferase cells, dilution series; for BRCA1-luciferase activity (in words): MCF7 pGL4.14-hBRCA1.3 cells
Experimental: Hygromycin selected MCF7 cells were seeded in 384-well tissue culture plates. The first two columns of each plate were empty so as to include established positive and negative controls. Each of the remaining 352 wells contained a compound to be screened. MCF7 cells were incubated with the compounds for 48 hours. Luciferase activity was measured using the Steady Glo Luciferase Assay System (Promega). Briefly, 5×10^6 MCF7 cells were transfected with […] of purified pGL4.14 containing the human BRCA1 promoter (pGL4.14-hBRCA) with Effectene as per manufacturers protocol (Qiagen). Stable transfectants were selected with […] Hygromicin B. 1×10^5 or 2×10^5 stable transfectants were tested for luciferase activity with the Steady-Glo Luciferase Assay System (Promega).
Hygromycin selected MCF-7 cells (e.g., MCF7 clone pGL4.14-hBRCA1.3) stably transfected with the human BRCA1-luciferase reporter construct (e.g., pGL4.14-hBRCA1.3) were seeded in 384-well white tissue culture plates (Becton Dickenson, San Diego, Calif.) at 1×10^4 cells/well. These cells were then stimulated with indicated concentrations of genistein (Sigma-Aldrich, St. Louis, Mo.) for 0, 6, 9, 24 and 48 hours. Luciferase activity was measured using the Steady Glo Luciferase Assay System (Promega). The data shown in FIG. 3A is representative of 3 individual experiments.
Two different chemical libraries were screened for the ability to enhance BRCA1 gene expression. To examine the effects of each compound on BRCA1 expression, the human BRCA1 promoter was cloned and inserted upstream of the firefly luciferase gene in the plasmid pGL4.14 (BRCA1-Luc) (Promega), as described above. The ER positive human breast cancer cell line, MCF7, was transfected and stable transfectants were selected with hygromycin.
Briefly, compounds were plated in a 384 well plate in a total volume of 20 μl. A ten point dilution series was used at concentrations—100 µM, 10 μM, 1 μM, 100 nM, 10 nM, 1 nM, 0.1 nM, 0.01 nM, 0.0001 nM, 0 (DMSO vehicle only). A second dilution series of 100 μM, 32.5 μM, […], 3.6 μM, 1.2 μM, 400 nM, 132.2 nM, 45 nM, 14.8 nM, 5 nM, and 1.65 nM was also used. MCF7-BRCA1-luciferase cells were added to the compounds at a concentration of 1×10^4 cells/well in a volume of 25 μl. The 384 well plates, containing the compounds+cells, were then incubated at 37° C. for 48 hours. After 48 hours, luciferase activity was measured with the Steady-Glo® Luciferase Assay System (Promega, Madison, Wis.).

BRCA1 protein = BRCA1 protein expression in MCF7 cells by Western blot; format: cell-based, human; details: 48 hours, compared to DMSO
Experimental: Compounds 29 and 30 were studied for BRCA1 and actin (e.g., housekeeping gene for normalization) protein expression. Briefly, MCF7 cells (2×10^6) in 2 ml MEM were plated in a 6 well tissue culture plate and were either left nonstimulated or treated with DMSO (vehicle control), […] Genistein, or 3 different concentrations of indicated test compound—3.65 μM, […], 32.5 μM. Following incubation at 37° C. for 48 hours, the media was removed and the cells were washed 1× with 500 μl of ice cold PBS. Another 500 μl of ice cold PBS was then added and the cells were scraped off the well and transferred to a microcentrifuge tube. To ensure all cells were removed from the well, an additional […] of ice cold PBS was added to the well and any remaining cells were combined with the initial cell harvest into the microcentrifuge tube. The cells were then pelleted by centrifugation for 5 min at 3000 rpm, 4° C. The supernate was removed and the pellet was then lysed in 150 μl of ice cold RIPA buffer+1× protease inhibitors, on ice for 30 minutes, vortexing occasionally. The cellular debris was then removed by centrifugation for 20 minutes at 11,000 rpm, 4° C. The remaining supernate, containing the extracted proteins, was then transferred to a microcentrifuge tube and quantified using the Bio-Rad DC assay. 100 μg of protein+1×SDS-PAGE sample buffer was loaded onto an 8% Tris glycine gel. The proteins were separated in a tris glycine running buffer at 125 volts for 90 minutes. The proteins were then transferred out of the gel onto PVDF in an overnight transfer with 20% methanol at 35 volts, 4° C. The PVDF membrane was then blocked with 5% milk/PBST (0.1%) for 1 hour at room temperature (RT). BRCA1 protein was detected using anti-BRCA1 (Ab-1, EMD Biosciences) at a 1:250 dilution in 3% milk/PBST, overnight at 4° C. […] To monitor equal protein loading, actin was detected using anti-actin at a 1:200,000 dilution in 5% milk/PBST for 1 hr at RT. […] Chemiluminescence was detected using the SuperSignal West Femto kit made by Pierce Biotechnology and the UVP imaging center. […]

Compound	EC50 (human BRCA1 promoter; Homo sapiens, MCF7, 48 h) [µM]	EC90 (human BRCA1 promoter; Homo sapiens, 48 hours) [µM]	EC50 (human BRCA1 promoter; 48 hours) [µM]	BRCA1-luciferase activity (in words) (human BRCA1 promoter; 48 hours)	BRCA1-luciferase activity (in words) (human BRCA1 promoter; 48 hours, listed as genistein)	BRCA1 protein expression (BRCA1 protein)
N/C(=N\OC(=O)c1ccoc1)c1ccc(Br)cc1 [Cmpd 20]	50.3	170	–	–	–	–
Cc1ccc(/C(O)=C/C=N/c2cccc(Cl)c2C)cc1 [Cmpd 21]	11.2	~9.72	–	–	–	–
COc1ccc(/C(O)=C\C=N\c2ccccc2OC)cc1 [Cmpd 22]	11	20.7	–	–	–	–
COc1ccc(/C=N/c2ccc3[nH]c(-c4ccccc4)nc3c2)cc1OC [Cmpd 23]	10.7	~11.8	–	–	–	–
Cc1ccc(-c2nc3ccc(NCc4cccs4)cc3o2)cc1 [Cmpd 25]	–	–	8.63	–	–	–
Cc1ccc(-c2nc3ccc(NCc4cccs4)cc3o2)cc1 [Cmpd 26]	–	366	28.7	–	–	–
NNC(=O)c1nc(-c2ccccc2)cc(-c2ccccc2)n1 [Cmpd 27]	–	0.00186	–	–	–	–
O=C(Nc1ccc(Br)cn1)c1ccc(Oc2ccccc2)cc1 [Cmpd 28]	6.96	–	–	–	–	–
CC(=O)c1ccc(/N=C/c2ccc(OCc3ccc(F)cc3)cc2)cc1 [Cmpd 31]	4.88	71.5	–	–	–	–
COc1ccc2c(c1OC)C(=O)N(c1ccc(C)cc1)C2 [Cmpd 32]	9.43	46.8	–	–	–	–
O=c1c(-c2ccc(O)cc2)coc2cc(O)ccc12 [Daidzein, reference compound]	–	–	–	dose-dependent increase in BRCA1-luciferase activity	–	–
O=c1c(-c2ccc(O)cc2)coc2cc(O)cc(O)c12 [Genistein, genistein, reference compound]	14.5	25	–	dose-dependent increase in BRCA1-luciferase activity	increase in BRCA1-luciferase activity	increase in BRCA1 protein
c1ccc(CNc2ccc3[nH]c(-c4ccco4)nc3c2)cc1 [JN1-68]	3.53	8.84	–	rank with the other top compounds and genistein	–	–
Cc1cccc(/C=N/c2ccc3[nH]c(-c4ccco4)nc3c2)c1 [JN1-72]	25.8	110	–	–	–	–
Fc1cccc(CNc2ccc3[nH]c(-c4ccco4)nc3c2)c1 [JN1-76]	2.42	5.94	–	rank with the other top compounds and genistein	–	–
Clc1cccc(/C=N/c2ccc3[nH]c(-c4ccco4)nc3c2)c1 [JN1-77]	34.9	196	–	–	–	–
Fc1cccc(/C=N/c2ccc3[nH]c(-c4ccco4)nc3c2)c1 [JN1-78]	17.4	49.4	–	–	–	–
Clc1cccc(CNc2ccc3[nH]c(-c4ccco4)nc3c2)c1 [JN1-82]	2.05	4.94	–	rank with the other top compounds and genistein	–	–
